By Kd is commonly meant the free concentration of one partner at which half of the binding sites on the other are occupied at equilibrium, for simple one-to-one binding. Higher therefore signals lower affinity.

The source of these data is ChEMBL document CHEMBL2311254, “Tuning the preference of thiodigalactoside- and lactosamine-based ligands to galectin-3 over galectin-1” (J Med Chem, 2013).

The species named for one assay is Homo sapiens. In words: Selectivity ratio of Kd for galectin-1 (unknown origin) to Kd for galectin-3 (unknown origin).
The target in assay [1] is T1, Galectin-3 (Homo sapiens, UniProt P17931). Nature of the assay: Ratio of LacNAc-beta-OMe Kd to compound Kd for galectin-3 (unknown origin).
T1 sequence (P17931 whole entry): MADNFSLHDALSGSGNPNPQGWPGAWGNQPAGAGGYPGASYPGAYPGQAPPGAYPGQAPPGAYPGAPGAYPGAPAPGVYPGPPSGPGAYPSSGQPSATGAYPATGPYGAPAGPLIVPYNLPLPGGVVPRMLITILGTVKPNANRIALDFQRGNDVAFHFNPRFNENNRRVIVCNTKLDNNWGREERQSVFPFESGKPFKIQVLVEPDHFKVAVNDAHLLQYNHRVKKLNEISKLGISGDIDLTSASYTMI
Assay [2] addresses T2, Galectin-1 (Homo sapiens, UniProt P09382). In words: Binding affinity to galectin-1 (unknown origin) by fluorescence polarization assay. For orientation: Polarisation of emitted light reports the rotation of a fluorescent probe.
For assay [3], the target named is T2, Galectin-1. In words: Ratio of LacNAc-beta-OMe Kd to compound Kd for galectin-1 (unknown origin).
Assay [4] addresses T1, Galectin-3. Nature of the assay: Binding affinity to galectin-3 (unknown origin) by fluorescence polarization assay.
Assay [5] concerns the target T1, Galectin-3. Nature of the assay: Ratio of Thiodigalactoside Kd to compound Kd for galectin-3 (unknown origin).
Assay [6] deals with T2, Galectin-1. In words: Ratio of Thiodigalactoside Kd to compound Kd for galectin-1 (unknown origin).
The target of assay [7] is T1, Galectin-3. In words: Binding affinity to galectin-3 (unknown origin).

T2 sequence (P09382 whole entry): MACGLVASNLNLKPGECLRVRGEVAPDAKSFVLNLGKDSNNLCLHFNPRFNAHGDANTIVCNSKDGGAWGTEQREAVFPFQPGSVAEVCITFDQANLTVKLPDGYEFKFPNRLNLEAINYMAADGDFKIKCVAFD

As to `[N-]=[N+]=NCCCO[C@@H]1O[C@H](CO)[C@@H](O[C@@H]2O[C@H](CO)[C@H](O)[C@H](n3cc(-c4ccc(Oc5ccccc5)cc4)nn3)[C@H]2O)[C@H](O)[C@H]1N1C(=O)c2ccccc2C1=O`, the Selectivity ratio in the assay listed under Homo sapiens worked out at 13. The figures for the Ratio at Galectin-3 [1] and on Galectin-1 [3] were 31 and 2.5, respectively. Also, the Kd is 28000 nM on Galectin-1 [2] and 2200 nM at Galectin-3 [4].
The like results for `[N-]=[N+]=NCCCO[C@@H]1O[C@H](CO)[C@@H](O[C@@H]2O[C@H](CO)[C@H](O)[C@H](n3cc(-c4ccc(Oc5ccccc5)cc4)nn3)[C@H]2O)[C@H](O)[C@H]1NC(=O)c1ccccc1` were, in that order, 2.4, 25, 10, 6700 nM and 2800 nM.
On to `OC[C@H]1O[C@@H](S[C@@H]2O[C@H](CO)[C@H](O)[C@H](n3cc(-c4ccccc4)nn3)[C@H]2O)[C@H](O)[C@@H](n2cc(-c3ccccc3)nn2)[C@H]1O`, for which, in the assay listed under Homo sapiens, the Selectivity ratio amounted to 1. Moreover, the Ratio at Galectin-3 [5] turned out to be 980; on Galectin-1 [6], 490. For the same compound, the Kd came out at 49 nM at Galectin-1 [2] and 44 nM at Galectin-3 [4].
The like results for `OC[C@H]1O[C@@H](S[C@@H]2O[C@H](CO)[C@H](O)[C@H](n3cc(-c4ccc(Oc5ccccc5)cc4)nn3)[C@H]2O)[C@H](O)[C@@H](n2cc(-c3ccc(Oc4ccccc4)cc3)nn2)[C@H]1O` were, in that order, 230, 120, 0.3, 84000 nM and 360 nM.
In the same order, the values of `OC[C@H]1O[C@@H](S[C@@H]2O[C@H](CO)[C@H](O)[C@H](n3cc(-c4cccc(O)c4)nn3)[C@H]2O)[C@H](O)[C@@H](n2cc(-c3cccc(O)c3)nn2)[C@H]1O` are 0.6, 1950, 1850, 13 nM and 22 nM.
Turning to `CO[C@@H]1O[C@H](CO)[C@@H](O[C@@H]2O[C@H](CO)[C@H](O)[C@H](O)[C@H]2O)[C@H](O)[C@H]1NC(C)=O`, the Selectivity ratio in the assay filed under Homo sapiens came to 1. The compound also had a Kd at Galectin-3 [4] of 69000 nM.
Consider `OC[C@H]1O[C@@H](S[C@@H]2O[C@H](CO)[C@H](O)[C@H](O)[C@H]2O)[C@H](O)[C@@H](O)[C@H]1O`, for which, on Galectin-3 [7], the Activity is 43 µM.
`[N-]=[N+]=NCCCO[C@@H]1O[C@H](CO)[C@@H](O[C@@H]2O[C@H](CO)[C@H](O)[C@H](OCc3ccc(Oc4ccccc4)cc3)[C@H]2O)[C@H](O)[C@H]1N1C(=O)c2ccccc2C1=O`: in the assay filed under Homo sapiens, the Selectivity ratio was 230. In addition, the Ratio came to 58 at Galectin-3 [1] and 0.3 at Galectin-1 [3]. The Kd on Galectin-1 [2] is 280000 nM; on Galectin-3 [4], 1200 nM.
In the case of `[N-]=[N+]=NCCCO[C@@H]1O[C@H](CO)[C@@H](O[C@@H]2O[C@H](CO)[C@H](O)[C@H](OCc3ccc(Oc4ccccc4)cc3)[C@H]2O)[C@H](O)[C@H]1NC(=O)c1ccccc1`, the Selectivity ratio in the assay filed under Homo sapiens came out at 22. Besides, the Ratio on Galectin-3 [1] came out at 8.5; at Galectin-1 [3] it was 0.4. For the same compound, the Kd turned out to be 180000 nM on Galectin-1 [2] and 8100 nM on Galectin-3 [4].
